US20060069132A1, “Azolecarboxamide herbicides” (priority 2004, published 2006)

Experiments:
giant foxtail [1] = assay: Test B pre-/postemergence herbicide test; assay type: in vivo, Setaria faberi; settings: for Foxtail, Giant plant response rating: postemergence, scale 0 (no effect) to 100 (complete control)
Summary of the method: (§1)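 Herbicidal effect was judged by eye on a 0–100 scale after plants stood 13 to 15 days in the greenhouse following pre- or postemergence treatment with surfactant-containing formulations.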

corn = assay: Test B pre-/postemergence herbicide test; assay type: in vivo, Zea mays; settings: for Corn plant response rating: postemergence, scale 0 (no effect) to 100 (complete control)
Summary of the method: as §1

wild oat = assay: Test B postemergence herbicide test; assay type: in vivo, Avena fatua; settings: postemergence, visual rating, scale 0 (no effect) to 100 (complete control)
Summary of the method: (§2)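 Each value is a visual 0–100 response rating taken against controls 13 to 15 days after treatment in the greenhouse. Plants received formulated chemical postemergence at the 1- to 4-leaf stage or, in flooded paddy, at the 2-leaf stage.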

morningglory [2] = assay: Test A pre-/postemergence herbicide test; assay type: in vivo, Ipomoea spp.
Summary of the method: (§3)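 Seeds sown in sandy loam received a preemergence directed soil spray of compound in non-phytotoxic solvent with surfactant; postemergence plants (2–10 cm, one- to two-leaf stage) were sprayed to runoff at the same time. After ~10 days in greenhouse, injury was rated visually versus untreated controls (0 = no effect, 100 = complete control).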

barnyardgrass [3] = assay: Test A pre-/postemergence herbicide test; assay type: in vivo, Echinochloa crus-galli
Summary of the method: as §3

rice [4] = assay: Test B flooded paddy test; assay type: in vivo, Oryza sativa; settings: 1000 g ai/ha, visual rating, scale 0 to 100 (0 no effect, 100 complete control), 13 to 15 days
Summary of the method: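 Treated at 2-leaf (paddy) or 1–4-leaf, 2–18 cm (postemergence); greenhouse 13–15 d; visual score vs control, 0 none to 100 complete control; dash = not tested.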

morningglory [5] = assay: Test B pre-/postemergence herbicide test; assay type: in vivo, Ipomoea coccinea; settings: for Morningglory plant response rating: postemergence, scale 0 (no effect) to 100 (complete control)
Summary of the method: (§4)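 Formulation: non-phytotoxic solvent mix with surfactant. Timing: preemergence on seed and postemergence on 2–18 cm plants, applied concurrently. Readout after 13–15 d greenhouse: visual 0–100 control rating against controls.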

lambsquarters = assay: Test B pre-/postemergence herbicide test; assay type: in vivo, Chenopodium album; settings: for Lambsquarters plant response rating: postemergence, scale 0 (no effect) to 100 (complete control)
Summary of the method: as §1

blackgrass = assay: Test B postemergence herbicide test; assay type: in vivo, Alopecurus myosuroides; settings: postemergence, visual rating, scale 0 (no effect) to 100 (complete control)
Summary of the method: (§5)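 Scale 0–100: zero equals no visible effect, 100 complete control, judged by eye relative to controls. Timing: 13 to 15 days in greenhouse post-treatment. Growth stage at spraying: two leaves (paddy) or one to four leaves, 2–18 cm (postemergence).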

barnyardgrass [6] = assay: Test B flooded paddy test; assay type: in vivo, Echinochloa crus-galli; settings: 1000 g ai/ha, visual rating, scale 0 to 100 (0 no effect, 100 complete control), 13 to 15 days
Summary of the method: as §5

ducksalad = assay: Test B flooded paddy test; assay type: in vivo, Heteranthera limosa; settings: 1000 g ai/ha, visual rating, scale 0 to 100 (0 no effect, 100 complete control), 13 to 15 days
Summary of the method: as §5

velvetleaf [7] = assay: Test A pre-/postemergence herbicide test; assay type: in vivo, Abutilon theophrasti
Summary of the method: as §3

Surinam grass = assay: Test B pre-/postemergence herbicide test; assay type: in vivo, Urochloa decumbens; settings: for Surinam Grass plant response rating: postemergence, scale 0 (no effect) to 100 (complete control)
Summary of the method: as §1

giant foxtail [8] = assay: Test A pre-/postemergence herbicide test; assay type: in vivo, Setaria faberi
Summary of the method: as §3

redroot pigweed = assay: Test A pre-/postemergence herbicide test; assay type: in vivo, Amaranthus retroflexus
Summary of the method: as §3

wheat = assay: Test B postemergence herbicide test; assay type: in vivo, Triticum aestivum; set-up: key to Wheat plant response rating: 0 = no effect, 100 = complete control; settings: postemergence, visual rating, scale 0 (no effect) to 100 (complete control)
Summary of the method: as §2

barnyardgrass [9] = assay: Test B pre-/postemergence herbicide test; assay type: in vivo, Echinochloa crus-galli; settings: for Barnyardgrass plant response rating: postemergence, scale 0 (no effect) to 100 (complete control)
Summary of the method: as §4

cocklebur = assay: Test B pre-/postemergence herbicide test; assay type: in vivo, Xanthium strumarium; settings: for Cocklebur plant response rating: postemergence, scale 0 (no effect) to 100 (complete control)
Summary of the method: as §4

pigweed = assay: Test B pre-/postemergence herbicide test; assay type: in vivo, Amaranthus retroflexus; settings: for Pigweed plant response rating: postemergence, scale 0 (no effect) to 100 (complete control)
Summary of the method: as §1

[10] = test system: small flower umbrella sedge; assay: Test B flooded paddy test; assay type: in vivo, Cyperus difformis; settings: 1000 g ai/ha, visual rating, scale 0 to 100 (0 no effect, 100 complete control), 13 to 15 days
Summary of the method: as §5

rice [11] = assay: Test B pre-/postemergence herbicide test; assay type: in vivo, Oryza sativa; settings: 0 = no effect, 100 = complete control, preemergence
Summary of the method: as §1

velvetleaf [12] = assay: Test B pre-/postemergence herbicide test; assay type: in vivo, Abutilon theophrasti; settings: for Velvetleaf plant response rating: postemergence, scale 0 (no effect) to 100 (complete control)
Summary of the method: as §1

large crabgrass [13] = assay: Test A pre-/postemergence herbicide test; assay type: in vivo, Digitaria sanguinalis
Summary of the method: as §3

large crabgrass [14] = assay: Test B pre-/postemergence herbicide test; assay type: in vivo, Digitaria sanguinalis; settings: for Crabgrass, Large plant response rating: postemergence, scale 0 (no effect) to 100 (complete control)
Summary of the method: as §1

[15] = 125 g ai/ha, 0 = no effect, 100 = complete control, preemergence
[16] = 500 g ai/ha, visual rating, 0 = no effect, 100 = complete control, preemergence
[17] = Postemergence, 500 g ai/ha, 0 to 100 scale, 0 no effect, 100 complete control
[18] = Postemergence, 2000 g ai/ha, 0 to 100 scale, 0 no effect, 100 complete control
[19] = Preemergence, 2000 g ai/ha, visual rating, 0 to 100 scale (0 no effect, 100 complete control)
[20] = preemergence, 500 g ai/ha, visual injury, 0 to 100 scale (0 no effect, 100 complete control)

CCc1nc(C(C)(C)C)sc1C(=O)Nc1cccc(C(=O)N(CC)CC)n1 [Compound 214]
Foxtail, Giant plant response rating (0 to 100 scale) (giant foxtail [1]; [15]): 0
Plant response rating, Foxtail, Giant (giant foxtail [1]; [16]): 90
Foxtail, Giant plant response rating (giant foxtail [1]; 125 g ai/ha, visual rating): 0
Foxtail, Giant plant response rating (giant foxtail [1]; 500 g ai/ha, visual rating): 20
Corn plant response rating (0 to 100 scale) (corn; [15]): 0
Plant response rating, Corn (corn; [16]): 0
Corn plant response rating (corn; 125 g ai/ha, visual rating): 0
Corn plant response rating (corn; 500 g ai/ha, visual rating): 20
Oat, Wild plant response rating (wild oat; 125 g ai/ha): 0
Oat, Wild plant response rating (wild oat; 500 g ai/ha): 0
Morningglory plant response rating (morningglory [2]; [17]): 0
Plant response rating, Morningglory (morningglory [2]; [18]): 10
Morningglory plant response rating (morningglory [2]; [19]): 30
Morningglory plant response rating (morningglory [2]; [20]): 5
Barnyardgrass plant response rating (barnyardgrass [3]; [17]): 0
Plant response rating, Barnyardgrass (barnyardgrass [3]; [18]): 15
Barnyardgrass plant response rating (barnyardgrass [3]; [19]): 30
Barnyardgrass plant response rating (barnyardgrass [3]; [20]): 0
Rice plant response rating (rice [4]): 0
Morningglory plant response rating (0 to 100 scale) (morningglory [5]; [15]): 0
Plant response rating, Morningglory (morningglory [5]; [16]): 0
Morningglory plant response rating (morningglory [5]; 125 g ai/ha, visual rating): 0
Morningglory plant response rating (morningglory [5]; 500 g ai/ha, visual rating): 0
Lambsquarters plant response rating (0 to 100 scale) (lambsquarters; [15]): 0
Plant response rating, Lambsquarters (lambsquarters; [16]): 80
Lambsquarters plant response rating (lambsquarters; 125 g ai/ha, visual rating): 0
Lambsquarters plant response rating (lambsquarters; 500 g ai/ha, visual rating): 0
Blackgrass plant response rating (blackgrass; 125 g ai/ha): 0
Blackgrass plant response rating (blackgrass; 500 g ai/ha): 0
Barnyardgrass plant response rating (barnyardgrass [6]): 0
Ducksalad plant response rating (ducksalad): 30
Velvetleaf plant response rating (velvetleaf [7]; [17]): 15
Plant response rating, Velvetleaf (velvetleaf [7]; [18]): 20
Velvetleaf plant response rating (velvetleaf [7]; [19]): 20
Velvetleaf plant response rating (velvetleaf [7]; [20]): 5
Surinam Grass plant response rating (0 to 100 scale) (Surinam grass; [15]): 0
Plant response rating, Surinam Grass (Surinam grass; [16]): 30
Surinam Grass plant response rating (Surinam grass; 125 g ai/ha, visual rating): 0
Surinam Grass plant response rating (Surinam grass; 500 g ai/ha, visual rating): 10
Foxtail, Giant plant response rating (giant foxtail [8]; [17]): 15
Plant response rating, Foxtail, Giant (giant foxtail [8]; [18]): 40
Foxtail, Giant plant response rating (giant foxtail [8]; [19]): 55
Foxtail, Giant plant response rating (giant foxtail [8]; [20]): 60
Pigweed plant response rating (redroot pigweed; [17]): 20
Plant response rating, Pigweed (redroot pigweed; [18]): 50
Pigweed plant response rating (redroot pigweed; [19]): 95
Pigweed plant response rating (redroot pigweed; [20]): 20
Wheat plant response rating (wheat; 125 g ai/ha): 0
Wheat plant response rating (wheat; 500 g ai/ha): 0
Barnyardgrass plant response rating (0 to 100 scale) (barnyardgrass [9]; [15]): 0
Plant response rating, Barnyardgrass (barnyardgrass [9]; [16]): 20
Barnyardgrass plant response rating (barnyardgrass [9]; 125 g ai/ha, visual rating): 0
Barnyardgrass plant response rating (barnyardgrass [9]; 500 g ai/ha, visual rating): 0
Cocklebur plant response rating (0 to 100 scale) (cocklebur; [15]): 0
Plant response rating, Cocklebur (cocklebur; [16]): 0
Cocklebur plant response rating (cocklebur; 125 g ai/ha, visual rating): 0
Cocklebur plant response rating (cocklebur; 500 g ai/ha, visual rating): 0
Pigweed plant response rating (0 to 100 scale) (pigweed; [15]): 0
Plant response rating, Pigweed (pigweed; [16]): 100
Pigweed plant response rating (pigweed; 125 g ai/ha, visual rating): 0
Pigweed plant response rating (pigweed; 500 g ai/ha, visual rating): 0
Sedge, Umbrella plant response rating [10]: 50
Rice plant response rating (0 to 100 scale) (rice [11]; 125 g ai/ha): 0
Plant response rating, Rice (rice [11]; 500 g ai/ha, visual rating): 0
Velvetleaf plant response rating (0 to 100 scale) (velvetleaf [12]; [15]): 0
Plant response rating, Velvetleaf (velvetleaf [12]; [16]): 0
Velvetleaf plant response rating (velvetleaf [12]; 125 g ai/ha, visual rating): 0
Velvetleaf plant response rating (velvetleaf [12]; 500 g ai/ha, visual rating): 10
Crabgrass, Large plant response rating (large crabgrass [13]; [17]): 5
Plant response rating, Crabgrass, Large (large crabgrass [13]; [18]): 10
Crabgrass, Large plant response rating (large crabgrass [13]; [19]): 65
Crabgrass, Large plant response rating (large crabgrass [13]; [20]): 55
Crabgrass, Large plant response rating (0 to 100 scale) (large crabgrass [14]; [15]): 0
Plant response rating, Crabgrass, Large (large crabgrass [14]; [16]): 70
Crabgrass, Large plant response rating (large crabgrass [14]; 125 g ai/ha, visual rating): 0
Crabgrass, Large plant response rating (large crabgrass [14]; 500 g ai/ha, visual rating): 0
